{"source": "patent EP0765662A1", "about": "“HIV GROWTH INHIBITORY COMPOSITION” (Kochi, Mutsuyuki, priority 1994, dated 1995)", "type_in_all_cases": "cell-based", "key": {"[1]": {"test": "Cytotoxicity of SBA, trypan blue dye-exclusion, A3.01 cells", "conditions": "human, read-out: Rate of survival of the cells (%)", "source_text": "(§1) It is known that stimulation of HIV gene by TPA and tumor necrosis factor (TNF) can activate the HIV gene which is latent as the HIV-provirus within the T-cells as infected with HIV and said stimulation can thus strongly induce the progresses of sprouting and release of the viral particles of HIV. It is considered that said activation of the HIV gene for the occurrence or developement of HIV virus would be caused by such an oxidation stress which is brought about within the host cells by any stimulation given from outside the host cells as above-mentioned. Further, such discoveries and observations have been reported that NFkB, which is a nuclear factor wthin the cells, can play important part in the proliferation of HIV virus, and that the oxidation-reduction status of the NFkB is important for the activation of this factor NFkB, and so on. […] (a) Test of examining cytotoxicity of SBA against various kinds of T-cells A3.01 cells (HAT-susceptible CEM cell strain), A3.01 cells as infected with HIV, and the above-mentioned U1 cells were cultivated, respectively, in an improved RPM1-1640 media containing SBA added at different concentrations. After the cultivation, the number of the cells under test which still survived was determined under a polarizing microscope by a trypan blue dye-exclusion method."}, "[2]": {"test_system": "HIV", "test": "HIV-p24 antigen in culture supernatant of HIV-infected mitogen-derived blast cells of PBMC", "conditions": "for Amount of HIV-p24 antigen: PHA-activated PBMC blast cells, culture supernatant", "experimental": "The cytotoxicity of SBA against the A3.01 cells, at a high SBA concentration of 1000 µg of SBA/ml, was such that the rate of survival of said cells was about 70%. The above results of testing the cytotoxicity of SBA indicate that the cytotoxicity of SBA against the above various cells is fairly low. On the other hand, with the HIV-infected A3.01 cells, it is seen that the presence of SBA at concentrations in a range of from 500 to 800 µg of SBA/ml gives the rate of survival of the HIV-infected A3.01 cells at a level as low as 3-24%. […] (b) Tests of examining the inhibitory activities of SBA against infestion of HIV to mitogen-derived blast cells of human periphery blood monocytic cell (PBMC) and against proliferation of HIV in the HIV-infected blast cells of PMBC as well as against replication of the viral particles of HIV in the HIV-infected blast cells of PBMC, where HIV was made to infest the blast cells of PBMC of which the blastogenesis has been induced by a mitogen. Such blast cells of PBMC, which were blastogenetically transformed by activation with PHA […] as a mitogen, were cultivated and then made to be infested with HIV either by inoculation of HIV or by inoculation of HIV which had been pretreated with SBA. The HIV-infected cells so obtained continued further to be incubated in the culture media containing different concentrations of SBA. Then, the supernatant of the resulting cultures was separated, and the amount of the viral particles of HIV as released in the supernatant so obtained was measured. This measurement of the released amount of the viral particles of HIV was made by determining the amount of HIV-p24 antigen, i.e. a structural protein of HIV, existing in the supernatant, as a substitute index which can represent the amount of the viral particles of HIV so released in said supernatant."}, "[3]": {"test": "Cytotoxicity of SBA, trypan blue dye-exclusion, U1 cells", "conditions": "human, read-out: Rate of survival of the cells (%)", "source_text": "as §1"}}, "note": "Structures can show the parent of a compound that is named as a salt."}
{"smiles": "O=C1O[C@H]([C@@H]2COC(c3ccccc3)O2)C(O)=C1O", "note": "(stereo partly drawn) [SBA, 5,6-O-benzylidene-L-ascorbic acid mono-sodium salt]", "values": [{"measurement": "viability", "setting": "[1]; SBA 100 µg/ml", "value": 97, "unit": "%"}, {"measurement": "viability", "setting": "[1]; SBA 1000 µg/ml", "value": "~70", "unit": "%"}, {"measurement": "inhibition of the replication of the viral particles of HIV (in words)", "setting": "[2]; PBMC blast cells infected with the SBA-pretreated HIV, cultivated in the presence of SBA", "value": "no appreciable effect of SBA to inhibit the replication of the viral particles of HIV can be observed"}, {"measurement": "Amount of HIV-p24 antigen", "setting": "[2]; SBA 10 µg/ml, cells as infected with HIV", "value": 1500, "unit": "pg/mL"}, {"measurement": "Amount of HIV-p24 antigen", "setting": "[2]; SBA 10 µg/ml, cells as infected with the SBA-pretreated HIV", "value": 1240, "unit": "pg/mL"}, {"measurement": "Amount of HIV-p24 antigen", "setting": "[2]; SBA 50 µg/ml, cells as infected with HIV", "value": 1400, "unit": "pg/mL"}, {"measurement": "Amount of HIV-p24 antigen", "setting": "[2]; SBA 50 µg/ml, cells as infected with the SBA-pretreated HIV", "value": 1520, "unit": "pg/mL"}, {"measurement": "inhibition of the production of the HIV antigen (in words)", "setting": "[2]; SBA 100 µg/ml, PHA-activated PBMC blast cells infested with HIV", "value": "exhibited an effective activity inhibitory to the production of the HIV antigen"}, {"measurement": "Amount of HIV-p24 antigen", "setting": "[2]; SBA 100 µg/ml, cells as infected with HIV", "value": 380, "unit": "pg/mL"}, {"measurement": "Amount of HIV-p24 antigen", "setting": "[2]; SBA 100 µg/ml, cells as infected with the SBA-pretreated HIV", "value": 1430, "unit": "pg/mL"}, {"measurement": "viability", "setting": "[3]; SBA 100 µg/ml", "value": 90, "unit": "%"}, {"measurement": "viability", "setting": "[3]; SBA 500 µg/ml", "value": 100, "unit": "%"}, {"measurement": "viability", "setting": "[3]; SBA 800 µg/ml", "value": 83, "unit": "%"}, {"measurement": "viability", "setting": "[3]; SBA 1000 µg/ml", "value": 92, "unit": "%"}]}
